Numbering of substitutions follows the chain as printed. “And” between values parts separate entries of the source, which are not always exact repeats. Equal values may be shown once. Each block holds one compound with its values, some of them ahead of it.
Target: T1, HA-S170A + myc-F801A (S170A:F801A heterodimer) (Rattus norvegicus, UniProt P48442, F801A/S170A)
T1 construct: mGluR5 signal peptide (N); expressed in transfected cells; host or cells: HEK293T
T1 sequence (P48442 20-1079 S170A): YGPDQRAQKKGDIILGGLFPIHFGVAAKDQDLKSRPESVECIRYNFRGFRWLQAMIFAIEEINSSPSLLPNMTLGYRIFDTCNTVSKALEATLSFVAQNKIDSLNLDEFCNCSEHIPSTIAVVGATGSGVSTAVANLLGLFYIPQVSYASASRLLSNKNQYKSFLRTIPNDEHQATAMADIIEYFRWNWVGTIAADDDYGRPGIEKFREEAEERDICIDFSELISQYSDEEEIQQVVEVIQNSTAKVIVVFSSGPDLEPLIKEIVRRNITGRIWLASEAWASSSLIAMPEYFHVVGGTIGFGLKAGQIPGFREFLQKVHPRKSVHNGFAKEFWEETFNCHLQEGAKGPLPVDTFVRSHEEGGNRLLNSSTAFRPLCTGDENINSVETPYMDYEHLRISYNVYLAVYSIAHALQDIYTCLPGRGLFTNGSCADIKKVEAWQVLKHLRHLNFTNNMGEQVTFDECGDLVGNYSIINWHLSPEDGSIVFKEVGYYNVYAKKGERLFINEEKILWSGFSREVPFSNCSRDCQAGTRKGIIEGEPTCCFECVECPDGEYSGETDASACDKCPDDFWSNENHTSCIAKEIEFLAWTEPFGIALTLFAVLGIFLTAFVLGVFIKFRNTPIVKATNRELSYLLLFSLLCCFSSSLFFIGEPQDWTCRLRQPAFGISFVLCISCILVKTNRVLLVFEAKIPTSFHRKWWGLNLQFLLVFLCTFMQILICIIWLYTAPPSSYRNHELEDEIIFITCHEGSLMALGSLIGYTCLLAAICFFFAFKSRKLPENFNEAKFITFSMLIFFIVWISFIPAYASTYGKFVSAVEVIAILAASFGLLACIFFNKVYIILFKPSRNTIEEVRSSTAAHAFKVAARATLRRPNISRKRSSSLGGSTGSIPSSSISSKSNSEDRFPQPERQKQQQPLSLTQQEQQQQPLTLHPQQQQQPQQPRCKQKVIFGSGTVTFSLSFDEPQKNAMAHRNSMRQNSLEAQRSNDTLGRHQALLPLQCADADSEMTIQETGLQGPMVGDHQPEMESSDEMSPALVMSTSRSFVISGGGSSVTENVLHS
T1 sequence (P48442 20-1079 F801A): T1 sequence (P48442 20-1079 S170A) with A151S, F782A
Experiment: IP-One trans-activation assay, co-expression 1:1 in HEK293T
Assay type: cell-based
Procedure: Human embryonic kidney (HEK) 293T cells were cultured in DMEM supplemented with 10% dFBS and 1% P/S at 37 °C and 5% CO2. 48 h prior to assay, transient transfection was performed using Lipofectamine 2000 as the transfection reagent. White opaque 96-well culture plates (PerkinElmer, Waltham, MA, USA) were used for the ELISA and the TR-FRET dimerization assay, while clear tissue culture treated 96-well plates (Corning, Corning, NY, USA) were used for the IP-One assay. Both plate types were coated with poly-D-lysine before addition of cells and transfection mix. 0.25 μl/well of Lipofectamine 2000 were diluted in 25 μl/well of Opti-MEM and incubated at room temperature (RT) for 5 min. 0.03 μg/well of DNA was diluted in 25 μl/well of Opti-MEM, and subsequently mixed with the Lipofectamine 2000 dilution and incubated 20 min at RT before addition to the plates. Cell suspensions of 170.000 HEK293T cells/mL were prepared in complete growth medium and 100 μl/well (17.000 cells/well) was added to the plates, which were incubated for 48 h at 37 °C and 5% CO2 before performing assays.
Functional activity was measured using the IP-One assay, which is an IP1 accumulation assay. For agonist testing, ligands were prepared in final concentrations in ligand buffer (HBSS, 20 mM HEPES, pH 7.4 supplemented with 20 mM LiCl). Cells were washed once with 100 μl/well of assay buffer (HBSS, 20 mM HEPES, pH 7.4) and 50 μl/well of agonist solution was added after which plates were incubated at 37 °C for 30 min. Subsequently, ligand solutions were removed and cells were washed with 100 μl/well of assay buffer. Cell lysis was performed by addition of 30 μl/well of IP-One Conjugate & Lysis Buffer (Cisbio Bioassays, Codolet, France) and plates were incubated at RT for 30 min. Afterwards, 30 μl/well of assay buffer was added to dilute the cell lysate. 10 μl/well of cell lysate was transferred from the 96-well plate to a 384-well Optiplate and 10 μl/well of detection solution (Assay buffer + 2.5% of anti-IP1 antibody cryptate Terbium conjugate + 2.5% IP1-d2 conjugate (Cisbio Bioassays, Codolet, France)) was also added. The 384-well plate was incubated for 1 h at RT in dark before being measured on an EnVision plate reader (PerkinElmer, Waltham, MA, USA). Upon excitation at 340 nm, emission at 615 nm and 665 nm was measured, and the FRET ratio (665 nm/615 nm) was converted to IP1 concentrations by interpolating values from an IP1 standard curve generated from a provided IP1 calibrator (Cisbio Bioassays, Codolet, France). When testing allosteric modulators, cells were pre-incubated for 30 min at 37 °C with 50 μl/well of ligand buffer supplemented with allosteric modulator and a final concentration of 1% DMSO. Afterwards, the buffer solution was removed and 50 μl/well of agonist solution in ligand buffer supplemented with allosteric modulator and a final concentration of 1% DMSO was added. Plates were incubated for 30 min at 37 °C followed by one wash in 100 μl/well of assay buffer. Cell lysis and detection was performed as described above.

[1] = HA-S170A + myc-F801A trans-activation response, Ca^2+ alone

inhibition of Ca^2+-mediated response (S170A:F801A heterodimer, highest tested NPS 2143 concentration (5 μM)): full inhibition
SMILES: CC(C)(Cc1ccc2ccccc2c1)NC[C@@H](O)COc1cccc(Cl)c1C#N.Cl [NPS 2143, NPS 2143 hydrochloride]

potentiation of Ca^2+-mediated response (S170A:F801A heterodimer, 0.05, 0.1 and 1 μM NPS R-568): concentration-dependent potentiation
SMILES: COc1cccc([C@@H](C)NCCCc2ccccc2Cl)c1.Cl [NPS R-568, NPS R-568 hydrochloride]

EC50 [1]: 12.7 mM | Hill coefficient ± S.E.M. [1]: 2.69 ± 0.19 | pEC50 ± S.E.M. [1]: 1.90 ± 0.03 | Max ± S.E.M. (HA-S170A + myc-F801A, maximum trans-activation response normalized to maximum response of WT CaSR): 30% and 30 ± 1.9%
SMILES: [Ca+2] [Ca^2+]
